Earlier results on one compound are cited in patent US20230087756A1, “SYSTEMS AND METHODS FOR […] OF BREWED BEVERAGES AND ACTIVE INGREDIENTS” (RECEPTOR HOLDINGS, INC., priority 2020, published 2023).

Each structure is given as a SMILES string.

For the compound `CCCCCc1cc(O)c2c(c1)OC(C)(C)[C@@H]1CCC(C)=C[C@@H]21` [THC, (−)-trans-delta-9-tetrahydrocannabinol], the “duration of appetite stimulant effect” value (after administration) was ≥ 24 h. Moreover, the peak effect (after most forms of oral administration) was 2 to 4 h. Under “after single oral doses”, the absorbed is on record as 90-95%. Besides, the “duration of action for psychoactive effects” value (oral administration) is 4 to 6 h.
